pIC50, pKd: −log10 of the molar value.
Experiments:
[1] = biological target: c-Cbl (residues 47-435) (Homo sapiens (Human), UniProt P22681); assay: c-Cbl SPR assay; format: binding; conditions: 20° C.
In short: (§1)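 Protein captured at 1300-1500 RU; compounds run as 6-point 2-fold series in multi-cycle kinetics (60 s contact, 40 μl/min, 120-1200 s dissociation), fitted 1:1. For slow binders, kd came from chaser-compound occupancy over time, fixed in a single-cycle fit (5 concentrations, top 500 nM).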

[2] = biological target: Human Cbl-b (residues 40-426) (Homo sapiens (Human), UniProt Q13191); assay: Cbl-b SPR assay; format: binding; conditions: for Fold of selectivity: C-cbl SPR Kd vs Cbl-b SPR Kd; for pKd: SPR, 20° C.
Human Cbl-b (residues 40-426), sequence (Q13191 40-426): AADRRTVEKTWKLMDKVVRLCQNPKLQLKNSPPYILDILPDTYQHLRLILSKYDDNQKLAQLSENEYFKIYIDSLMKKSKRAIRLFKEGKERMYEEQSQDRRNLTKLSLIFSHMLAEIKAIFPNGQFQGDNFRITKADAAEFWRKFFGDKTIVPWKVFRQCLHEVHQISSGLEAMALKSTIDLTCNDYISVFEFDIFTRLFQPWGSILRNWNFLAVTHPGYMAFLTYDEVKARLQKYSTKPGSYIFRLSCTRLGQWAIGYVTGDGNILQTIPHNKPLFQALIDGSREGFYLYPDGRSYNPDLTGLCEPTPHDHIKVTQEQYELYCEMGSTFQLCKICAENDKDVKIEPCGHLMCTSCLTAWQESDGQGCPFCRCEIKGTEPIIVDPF
In short: as §1

[3] = biological target: Cbl-b (Homo sapiens (Human), UniProt Q13191); assay: Cbl-b LCK Ub TR-FRET assay (Cbl-b Lck HTRF); format: biochemical; conditions: for pIC50: Cbl-b LCK Ub TR-FRET; for fold-selectivity (Cbl-b over C-cbl) / (fold-selectivity) Cbl-b and C-Cbl Selectivity: ratio C-cbl Lck HTRF IC50 / Cbl-b Lck HTRF IC50
Cbl-b, sequence (Q13191 40-426): as above
In short: (§2)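 After the ubiquitination reaction, detection mixture was added and plates incubated 20 min at room temperature before reading. IC50 values were calculated with wells lacking LCK as the low control and DMSO as the high control.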

[4] = biological target: c-Cbl (Homo sapiens (Human), UniProt P22681); assay: C-Cbl LCK Ub TR-FRET assay (C-cbl Lck HTRF); format: biochemical
c-Cbl, sequence (P22681 47-435): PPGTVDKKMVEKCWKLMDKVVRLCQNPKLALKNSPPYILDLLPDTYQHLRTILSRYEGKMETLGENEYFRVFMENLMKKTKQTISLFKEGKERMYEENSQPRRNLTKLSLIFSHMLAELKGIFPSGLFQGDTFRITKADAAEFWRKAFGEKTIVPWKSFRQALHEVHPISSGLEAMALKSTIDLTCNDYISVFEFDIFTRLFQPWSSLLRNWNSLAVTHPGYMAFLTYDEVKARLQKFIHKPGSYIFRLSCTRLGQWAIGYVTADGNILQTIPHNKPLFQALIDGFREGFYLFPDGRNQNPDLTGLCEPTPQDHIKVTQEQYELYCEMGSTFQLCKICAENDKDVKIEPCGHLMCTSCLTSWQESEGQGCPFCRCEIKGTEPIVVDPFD
In short: as §2

c-Cbl (residues 47-435), sequence (P22681 47-435): as above

In the case of `CO[C@H]1C[C@](c2cc(NCCC#N)cc(N3Cc4c(cc(CNC5(C)CCC5)cc4C(F)(F)F)C3=O)c2)(c2nncn2C)C1` [Compound 216, 3-((3-((1r,3r)-3-methoxy-1-(4-methyl-4H-1,2,4-triazol-3-yl)cyclobutyl)-5-(6-(((1-methylcyclobutyl)amino)methyl)-1-oxo-4-(trifluoromethyl)isoindolin-2-yl)phenyl)amino)propanenitrile], the pKd [1] was 7.29, the Fold of selectivity [2] was 11× and the pKd [2] was 8.33. The pIC50 [3] was 7.85, the “fold-selectivity (Cbl-b over C-cbl)” value [3] was 4.2x and the pIC50 [4] was 7.21.
`CCNc1cc([C@]2(c3nncn3C)C[C@H](C)C2)cc(N2Cc3c(cc(CNC4(C)CCC4)cc3C(F)(F)F)C2=O)c1F` [Compound 336, 2-(3-(ethylamino)-2-fluoro-5-((1r,3r)-3-methyl-1-(4-methyl-4H-1,2,4-triazol-3-yl)cyclobutyl)phenyl)-6-(((1-methylcyclobutyl)amino)methyl)-4-(trifluoromethyl)isoindolin-1-one] gave a pKd [1] of 7.89, a Fold of selectivity [2] of 4.1× and a pKd [2] of 8.49. For the same molecule, the pIC50 [3] was 8.13, the “fold-selectivity (Cbl-b over C-cbl)” value [3] was 1.2x and the pIC50 [4] was 8.04.
`Cn1cnnc1C(F)(c1cccc(N2Cc3c(cc(CNC4(C)CCC4)cc3C(F)(F)F)C2=O)c1)C1(F)COC1` (stereo in doubt) [Compound 404, (R)-2-(3-(fluoro(3-fluorooxetan-3-yl)(4-methyl-4H-1,2,4-triazol-3-yl)methyl)phenyl)-6-(((1-methylcyclobutyl)amino)methyl)-4-(trifluoromethyl)isoindolin-1-one] showed a pKd [1] of 8.66, a Fold of selectivity [2] of 2.6× and a pKd [2] of 9.07. For the same molecule, the pIC50 ([3]; Example 121) was 8.32, the “(fold-selectivity) Cbl-b and C-Cbl Selectivity” value [3] was 1.0x and the pIC50 [4] was 8.31.
For `C=CCNc1cc(N2Cc3c(cc(CNC4(C)CCC4)cc3C(F)(F)F)C2=O)cc([C@]2(c3nncn3C)C[C@H](OC)C2)c1` [Compound 232, 2-(3-(allylamino)-5-((1r,3r)-3-methoxy-1-(4-methyl-4H-1,2,4-triazol-3-yl)cyclobutyl)phenyl)-6-(((1-methylcyclobutyl)amino)methyl)-4-(trifluoromethyl)isoindolin-1-one], the pKd [1] was 7.89, the Fold of selectivity [2] was 9.2× and the pKd [2] was 8.85. For the same molecule, the pIC50 [3] was 7.89, the “fold-selectivity (Cbl-b over C-cbl)” value [3] was 2.6x and the pIC50 [4] was 7.46.
With `Cn1cnnc1[C@@H](c1cccc(N2Cc3c(Cl)cc(CNC4(C)CCC4)cc3C2=O)c1)[C@H]1C[C@@H](F)C1` [Compound 317, 4-chloro-2-(3-((R)-((1s,3S)-3-fluorocylcobutyl)(4-methyl-4H-1,2,4-triazol-3-yl)methyl)phenyl)-6-(((1-methylcyclobutyl)amino)methyl)isoindolin-1-one] the pKd [1] was 5.82, the Fold of selectivity [2] was 15× and the pKd [2] was 7.00. For the same molecule, the pIC50 [3] was 6.77, the “fold-selectivity (Cbl-b over C-cbl)” value [3] was 6.5x and the pIC50 [4] was 5.96.
For `CO[C@H]1C[C@H]([C@@H](c2cccc(N3Cc4c(cc(CN5CCN(C)C[C@@H]5C(C)C)cc4C(F)(F)F)C3=O)c2)c2nncn2C)C1` (single isomer, unassigned) [Compound 12], the pKd [1] was 7.92, the Fold of selectivity [2] was 5× and the pKd [2] was 8.60. The pIC50 [3] was 7.92, the “fold-selectivity (Cbl-b over C-cbl)” value [3] was “(1.5x)” and the pIC50 [4] was 7.74.
`Cn1cnnc1[C@@H](c1cccc(N2Cc3c(cc(CNC4(C)CCC4)cc3C(F)(F)F)C2=O)c1)C1CC(=O)C1` (single isomer, unassigned) [Compound 114] was tested, and the pKd [1] was 6.21, the Fold of selectivity [2] was 2.1× and the pKd [2] was 6.54. For the same molecule, the pIC50 [3] was 6.44, the “fold-selectivity (Cbl-b over C-cbl)” value [3] was 2.1 x and the pIC50 [4] was 6.11.
Molecule `CO[C@H]1C[C@@](c2cc(NC(C)C)cc(N3Cc4c(cc(CNC5(C)CCC5)cc4C(F)(F)F)C3=O)c2)(c2nncn2C)C1` [Compound 223, 2-(3-(isopropylamino)-5-((1s,3s)-3-methoxy-1-(4-methyl-4H-1,2,4-triazol-3-yl)cyclobutyl)phenyl)-6-(((1-methylcyclobutyl)amino)methyl)-4-(trifluoromethyl)isoindolin-1-one] has a pKd [1] of 7.66, a Fold of selectivity [2] of 7.5× and a pKd [2] of 8.54. The pIC50 [3] was 7.82, the “fold-selectivity (Cbl-b over C-cbl)” value [3] was 1.4x and the pIC50 [4] was 7.68.
With `COC[C@@H]1CC1(c1cccc(N2Cc3c(cc(CNC4(C)CCC4)cc3C(F)(F)F)C2=O)c1)c1nncn1C` (single isomer, unassigned) [Compound 166] the pKd [1] was 5.42, the Fold of selectivity [2] was 5.3× and the pKd [2] was 6.15. For the same molecule, the pIC50 [3] was 5.72, the “fold-selectivity (Cbl-b over C-cbl)” value [3] was 3.8x and the pIC50 [4] was 5.14.
Molecule `COC1CC([C@H](c2cccc(N3Cc4c(cc(CNC5(C)CCC5)cc4C(F)(F)F)C3=O)c2)c2nncn2C)C1` (single isomer, unassigned) [Compound 132] has a pKd [1] of 5.25, a Fold of selectivity [2] of 15× and a pKd [2] of 6.44. The pIC50 [3] was 6.22, the “fold-selectivity (Cbl-b over C-cbl)” value [3] was 8.0x and the pIC50 [4] was 5.32.
For `CO[C@H]1C[C@](c2cccc(N3Cc4c(cc(CNC5C[C@@H]6C[C@H]5CO6)cc4C(F)(F)F)C3=O)c2)(c2nncn2C)C1` (stereo partly drawn) [Compound 500, 6-((2-oxabicyclo[2.2.1]heptan-5-ylamino)methyl)-2-(3-((1r,3r)-3-methoxy-1-(4-methyl-4H-1,2,4-triazol-3-y)cyclobutyl)phenyl)-4-(trifluoromethyl)isoindolin-1-one], the pKd [1] was 6.92, the Fold of selectivity [2] was 12× and the pKd [2] was 8.00. For the same molecule, the pIC50 ([3]; Example 121) was 7.80, the “(fold-selectivity) Cbl-b and C-Cbl Selectivity” value [3] was 5.3x and the pIC50 [4] was 7.07.
For `CC(C)CNCc1cc2c(c(C(F)(F)F)c1)CN(c1cccc([C@H](c3nncn3C)C3COC3)c1)C2=O` (single isomer, unassigned) [Compound 464], the pKd [1] was 8.44, the Fold of selectivity [2] was 3.3× and the pKd [2] was 8.96. The pIC50 ([3]; Example 121) was 8.19, the “(fold-selectivity) Cbl-b and C-Cbl Selectivity” value [3] was 1.1x and the pIC50 [4] was 8.15.
`Cn1ccnc1[C@@H](c1cccc(N2Cc3c(cc(CNC4(C)CCC4)cc3C(F)(F)F)C2=O)c1)C1COC1` (single isomer, unassigned) [Compound 352] showed a pKd [1] of 6.57, a Fold of selectivity [2] of 7.6× and a pKd [2] of 7.47. For the same molecule, the pIC50 [3] was 7.16, the “fold-selectivity (Cbl-b over C-cbl)” value [3] was 4.1x and the pIC50 [4] was 6.55.
Molecule `Cn1cnnc1[C@H](c1cccc(N2Cc3c(cc(CNC4(C)CCC4)cc3C(F)(F)F)C2=O)c1)C1CC1` (single isomer, unassigned) [Compound 343] has a pKd [1] of 5.55, a Fold of selectivity [2] of 6.4× and a pKd [2] of 6.36. The pIC50 [3] was 6.54, the “fold-selectivity (Cbl-b over C-cbl)” value [3] was 2.1x and the pIC50 [4] was 6.21.
With `Cn1cnnc1[C@]1(c2cccc(N3Cc4c(cc(CNC5(C)CCC5)cc4C(F)(F)F)C3=O)c2)CCC(F)(F)C1` (single isomer, unassigned) [Compound 107] the pKd [1] was 5.77, the Fold of selectivity [2] was 6.8× and the pKd [2] was 6.60. The pIC50 [3] was 6.52, the “fold-selectivity (Cbl-b over C-cbl)” value [3] was 6.0x and the pIC50 [4] was 5.74.
`Cn1cnnc1[C@]1(c2cccc(N3Cc4c(Cl)cc(CNC5(C)CCC5)cc4C3=O)c2)C[C@H](Cl)C1` [Compound 452, 4-chloro-2-(3-((1s,3s)-3-chloro-1-(4-methyl-4H-1,2,4-triazol-3-yl)cyclobutyl)phenyl)-6-(((1-methylcyclobutyl)amino)methyl)isoindolin-1-one] showed a pKd [1] of 8.62, a Fold of selectivity [2] of 3.3× and a pKd [2] of 9.15. The pIC50 ([3]; Example 121) was 8.26, the “(fold-selectivity) Cbl-b and C-Cbl Selectivity” value [3] was 1.0x and the pIC50 [4] was 8.25.

Source: patent publication US12187709B2 (Genentech, Inc., priority 2021, dated 2025)
